In the NIST ThermoML archive (doi:10.1021/acs.jced.8b00302) one finds mass density data, which are given here for three compounds.

± gives the expanded uncertainty stated by the source.

The nature of this data set: wn = mass fraction of the nth substance listed. The settings on record: 298.2 K, 100 kPa, Liquid, Gravity bottle method.

Consider `O=S(=O)([O-])[O-].[Cs+].[Cs+]` [cesium sulfate] + O, for which the mass density runs as follows: (w1 = 0.3365) 1363.1 ± 10 kg/m3; (w1 = 0.6463) 2016.2 ± 10 kg/m3.

On to `O=S(=O)([O-])[O-].[Mg+2]` [magnesium sulfate] + O, for which the mass density (w1 = 0.2743) stood at 1293 ± 10 kg/m3.

Regarding `O=S(=O)([O-])[O-].[Rb+].[Rb+]` [rubidium sulfate] + O, the mass density (w1 = 0.6463) amounted to 2016.2 ± 10 kg/m3.

In general, mass density refers to the mass of a sample divided by its volume.
